Reference: patent US6620821B2, “HMG-CoA reductase inhibitors and method” (Bristol-Myers Squibb Company, priority 2000, dated 2003)

melting point: 253 to 254 °C
SMILES: CC(C)c1nc2c(c(-c3ccc(F)cc3)c1CC[C@@H](O)C[C@@H](O)CC(=O)[O-])CCCc1ccccc1-2.[Na+]
